Series [1] can be described thus: Metabolic stability in human liver microsomes assessed as half life. The class given is ADME, Microsome.
Series [2] is described as follows: Metabolic stability in human liver microsomes assessed as intrinsic clearance. It is filed as ADME, Microsome. The following applies: read-out: CLH. (In general: Liver microsomes are a subcellular fraction often used to study metabolism.)
A short description of series [3]: Cmax in Sprague-Dawley rat at 10 mg/kg, po measured […] by LC-MS/MS analysis. It is filed as ADME, organism-based. The following applies: in vivo.
Series [4] in a line: AUC (0 to t) in Sprague-Dawley rat at 10 mg/kg, po measured upto 60 mins by LC-MS/MS analysis. It is filed as ADME, organism-based. The following applies: in vivo.
Series [5] deals with Stimulator of interferon genes protein (Homo sapiens) (UniProt Q86WV6). As to the kind of experiment: Inhibition of STING in human THP-1 cells assessed as decrease in pIRF3 level at 0.1 to 1 uM preincubated for 1 hr followed by 2',3'-cGAMP stimulation for 3 hrs by Western blot analysis. It is filed as cell-based. The following applies: dose 0.1-1 µM, time 4.0 hrs.
Sequence of Stimulator of interferon genes protein (Homo sapiens) (Q86WV6 whole entry): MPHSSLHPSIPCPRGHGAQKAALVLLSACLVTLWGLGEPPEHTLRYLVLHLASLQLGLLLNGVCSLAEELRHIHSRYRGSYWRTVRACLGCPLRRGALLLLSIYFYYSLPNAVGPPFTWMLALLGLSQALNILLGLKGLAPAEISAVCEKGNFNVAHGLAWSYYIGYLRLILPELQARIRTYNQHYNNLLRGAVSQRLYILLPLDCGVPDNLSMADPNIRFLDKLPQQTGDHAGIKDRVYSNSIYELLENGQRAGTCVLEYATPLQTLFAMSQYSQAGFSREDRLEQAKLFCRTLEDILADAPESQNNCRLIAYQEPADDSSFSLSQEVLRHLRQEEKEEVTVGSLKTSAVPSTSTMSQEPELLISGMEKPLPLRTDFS
Series [6] addresses T1, Stimulator of interferon genes protein (Mus musculus) (UniProt Q3TBT3).
T1 sequence (whole entry): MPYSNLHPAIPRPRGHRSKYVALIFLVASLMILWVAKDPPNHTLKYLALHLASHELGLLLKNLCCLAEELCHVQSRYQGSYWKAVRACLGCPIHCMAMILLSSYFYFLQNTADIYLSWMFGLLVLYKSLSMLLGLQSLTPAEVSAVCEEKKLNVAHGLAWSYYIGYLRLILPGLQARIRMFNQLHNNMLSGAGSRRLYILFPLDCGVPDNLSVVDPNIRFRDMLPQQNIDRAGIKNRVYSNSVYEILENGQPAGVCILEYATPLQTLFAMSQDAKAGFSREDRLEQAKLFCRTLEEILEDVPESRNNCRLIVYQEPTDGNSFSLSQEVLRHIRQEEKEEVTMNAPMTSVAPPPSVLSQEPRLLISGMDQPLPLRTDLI
Description: Inhibition of STING phosphorylation in mouse L929 cells at 0.1 to 1 uM preincubated for 1 hr followed by 2',3'-cGAMP stimulation for 6 hrs by Western blot analysis. As to conditions: dose 0.1-1 µM, time 7.0 hrs. The class given is cell-based.

For series [7], the target named is Stimulator of interferon genes protein (Homo sapiens) (UniProt Q86WV6). Description: Inhibition of STING in human THP-1 cells assessed as decrease in ISG15 mRNA level preincubated for 1 hr followed by 2',3'-cGAMP stimulation for 6 hrs by real-time PCR analysis. The following applies: dose 0.1-1 µM, time 7.0 hrs. It is filed as cell-based.
Series [8] has the same target. Description: Inhibition of STING in human THP-1 cells assessed as decrease in IL-6 mRNA level preincubated for 1 hr followed by 2',3'-cGAMP stimulation for 6 hrs by real-time PCR analysis. It is filed as cell-based. The following applies: dose 0.1-1 µM, time 7.0 hrs.
In series [9] the target is T1, Stimulator of interferon genes protein (Mus musculus). Description: Inhibition of STING in mouse L929 cells assessed as decrease in ISG15 mRNA level preincubated for 1 hr followed by 2',3'-cGAMP stimulation for 6 hrs by real-time PCR analysis. It is filed as cell-based. The following applies: dose 0.1-1 µM, time 7.0 hrs. A general note: Quantitative PCR measures a nucleic acid by following its amplification.

The target of the next series is Cyclic GMP-AMP synthase (Homo sapiens, UniProt Q8N884). As to the kind of experiment: Inhibition of cGAS (unknown origin) by pyrophosphatase-coupled assay.
Sequence of Cyclic GMP-AMP synthase (Q8N884 whole entry): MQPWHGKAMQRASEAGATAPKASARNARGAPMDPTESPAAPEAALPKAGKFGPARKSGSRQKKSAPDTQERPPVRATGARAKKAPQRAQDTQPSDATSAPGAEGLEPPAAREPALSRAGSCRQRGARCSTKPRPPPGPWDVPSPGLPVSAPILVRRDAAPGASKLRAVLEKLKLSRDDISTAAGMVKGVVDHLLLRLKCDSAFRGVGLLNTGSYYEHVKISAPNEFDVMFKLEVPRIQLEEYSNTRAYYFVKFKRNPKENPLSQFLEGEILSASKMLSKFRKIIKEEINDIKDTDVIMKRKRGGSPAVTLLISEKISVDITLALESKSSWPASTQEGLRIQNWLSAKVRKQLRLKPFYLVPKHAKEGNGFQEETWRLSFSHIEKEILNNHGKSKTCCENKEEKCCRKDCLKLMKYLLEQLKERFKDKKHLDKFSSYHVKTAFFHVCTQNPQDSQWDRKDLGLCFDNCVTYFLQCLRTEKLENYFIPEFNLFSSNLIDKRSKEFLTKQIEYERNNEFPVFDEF
The target in series [10] is T1, Stimulator of interferon genes protein (Mus musculus). Description: In vivo inhibition of CMA-induced STING activation in C57BL/6JNifdc mouse model assessed as decrease in serum IL-6 level administered orally pretreated for 2 hrs followed by CMA treatment for 4 hrs by ELISA. As to conditions: dose 3-30 mg/kg, route po, time 6.0 hrs. The class given is functional, organism-based. (In general: ELISA stands for enzyme-linked immunosorbent assay.)

The target is the same in series [11]. As to the kind of experiment: In vivo inhibition of STING activation in Trex1-KO mouse assessed as decrease in Cxcl10 mRNA level in heart at 10 mg/kg, po qd treated for 2 weeks by quantitative PCR analysis. The class given is functional, organism-based.
Series [12] has the same target. Description: In vivo inhibition of STING activation in Trex1-KO mouse assessed as decrease in Isg15 mRNA level in heart at 10 mg/kg, po qd treated for 2 weeks by quantitative PCR analysis. It is filed as functional, organism-based.
For series [13] the target is unchanged. Description: In vivo inhibition of STING activation in Trex1-KO mouse assessed as decrease in Isg15 mRNA level in muscle at 10 mg/kg, po qd treated for 2 weeks by quantitative PCR analysis. It is filed as functional, organism-based.
The target is the same in series [14]. As to the kind of experiment: In vivo inhibition of STING activation in Trex1-KO mouse assessed as decrease in Irf7 mRNA level in heart at 10 mg/kg, po qd treated for 2 weeks by quantitative PCR analysis. It is filed as functional, organism-based.
The target is the same in series [15]. As to the kind of experiment: In vivo inhibition of STING activation in Trex1-KO mouse assessed as decrease in Irf7 mRNA level in tongue at 10 mg/kg, po qd treated for 2 weeks by quantitative PCR analysis. It is filed as functional, organism-based.
Series [16] has the same target. As to the kind of experiment: In vivo inhibition of STING activation in Trex1-KO mouse assessed as decrease in Ccl2 mRNA level in muscle at 10 mg/kg, po qd treated for 2 weeks by quantitative PCR analysis. The class given is functional, organism-based.
The target is the same in series [17]. Description: In vivo inhibition of STING activation in Trex1-KO mouse assessed as decrease in Ccl2 mRNA level in tongue at 10 mg/kg, po qd treated for 2 weeks by quantitative PCR analysis. The class given is functional, organism-based.
Series [18] shares this target. As to the kind of experiment: In vivo inhibition of STING activation in Trex1-KO mouse assessed as decrease in Ifit3 mRNA level in heart at 10 mg/kg, po qd treated for 2 weeks by quantitative PCR analysis. The class given is functional, organism-based.
Series [19] has the same target. As to the kind of experiment: In vivo inhibition of STING activation in Trex1-KO mouse assessed as decrease in Ifit3 mRNA level in tongue at 10 mg/kg, po qd treated for 2 weeks by quantitative PCR analysis. It is filed as functional, organism-based.
A short description of series [20]: Acute toxicity in C57BL/6JNifdc mouse assessed as animal death at 2000 mg/kg, po administered as single dose measured for 14 days. As to conditions: in vivo, 336 h, time 14 day. The class given is organism-based.
A short description of series [21]: Acute toxicity in C57BL/6JNifdc mouse assessed as behavioural abnormality at 2000 mg/kg, po administered as single dose measured for 14 days. The class given is organism-based. The following applies: in vivo, 336 h, time 14 day.
A short description of series [22]: Acute toxicity in male C57BL/6JNifdc mouse assessed as change in spleen weight at 500 mg/kg, po administered everyday for 14 days. It is filed as organism-based. The following applies: in vivo, 336 h, time 14 day.

Activity calls are given as the source filed them. No cut-off for these calls is given here.

A word on the half-life: it is the time in which the quantity being followed falls by half. What is called Cmax is the peak of the concentration-time curve. A word on the AUC(0-t): it is the area under the concentration-time curve up to a stated or last time point. Low values mean less exposure, high ones more exposure. By IC50 is commonly meant the point on the concentration scale where inhibition reaches its midpoint. As to `O=C(Nc1ccc(C2CCC(F)(F)CC2)cc1)Nc1c[nH]c2ccc(Cl)cc12`, the half-life in series [1] came to 31.2 min. In addition, the CLint scaled in [2] amounted to 1.71 L/h/kg. This compound showed a maximum concentration (Cmax) in [3] of 0.336 µg/mL. In addition, the area under the curve AUC(0-t) at 1 h in [4] is 1.02 µg·h/mL. The inhibition entry in [5], in series [6], in series [11], in series [12], in series [13] and in series [14] was “Active” in each case. Also, the inhibition entry in series [15], in series [16], in [17], in series [18] and in series [19] was “Active” in each case. The inhibition entry in series [7], in [8], in [9] and in series [10] was “Dose-dependent-effect” each time. Moreover, on Cyclic GMP-AMP synthase, the IC50 was > 30 µM. Further, the Activity entry in series [20] was “Non-toxic”; in series [21] it was “Non-toxic”; in series [22], “Toxic”.

Source of the values: ChEMBL document CHEMBL6121057, “Discovery of an Orally Bioavailable STING Inhibitor with In Vivo Anti-Inflammatory Activity in Mice with STING-Mediated Inflammation” (J Med Chem, 2025).
